Patent US7320979B2, “N-[(piperazinyl)hetaryl]arylsulfonamide compounds” (Abbott GmbH & Co. KG., priority 2003, dated 2008)
Where a name gives a salt, the structure may show the parent alone.

Tests used:
[1] = molecular target: T1, human dopamine D3 receptors (Homo sapiens, UniProt P35462); test: Dopamine D3 receptor binding, displacement of [125I]-iodosulpride; conditions: membranes of HEK-293 cells stably expressing human D3 receptors; 0.1 nM [125I]-iodosulpride; 25° C., 60 minutes
T1 construct: expressed in transfected cells; host or cells: HEK-293
Experimental: (§1) The substance to be tested was either dissolved in methanol/Chremophor® (BASF-AG) or in dimethyl sulfoxide and then diluted with water to the desired concentration.
(§2) Each assay mixture was run in triplicate.
The incubation buffer contained 50 mM tris, 120 mM NaCl, 5 mM KCl, 2 mM CaCl2, 2 mM MgCl2 and 0.1% bovine serum albumin, 10 μM […] and 0.1% ascorbic acid (prepared fresh daily). The buffer was adjusted to pH 7.4 with HCl.
(§3) After having been incubated at 25° C. for 60 minutes, the assay mixtures were filtered through a Whatman GF/B glass fiber filter under vacuum using a cell collecting device. The filters were transferred to scintillation viols using a filter transfer system. After 4 ml of Ultima Gold® (Packard) have been added, the samples were shaken for one hour and the radioactivity was then counted in a Beta-Counter (Packard, Tricarb 2000 or 2200CA). The cpm values were converted into dpm using a standard quench series and the program belonging to the instrument.
(§4) The inhibition curves were analyzed by means of iterative nonlinear regression analysis using the Statistical Analysis System (SAS) which is similar to the “LIGAND” program described by Munson and Rodbard.

[2] = molecular target: T2, human dopamine D2L receptors (long isoform) (Homo sapiens, UniProt P14416); test: Dopamine D2L receptor binding, displacement of [125I] iodospiperone; conditions: footnote: ratio of the Ki values of the D3 and D2L binding tests
T2 construct: expressed in transfected cells; host or cells: HEK-293
Experimental: as §1, §2
The incubation buffer contained 50 mM tris, 120 mM NaCl, 5 mM KCl, 2 mM CaCl2, 2 mM MgCl2 and 0.1% bovine serum albumin. The buffer was adjusted to pH 7.4 with HCl.
as §3, §4

T1 sequence (P35462 whole entry): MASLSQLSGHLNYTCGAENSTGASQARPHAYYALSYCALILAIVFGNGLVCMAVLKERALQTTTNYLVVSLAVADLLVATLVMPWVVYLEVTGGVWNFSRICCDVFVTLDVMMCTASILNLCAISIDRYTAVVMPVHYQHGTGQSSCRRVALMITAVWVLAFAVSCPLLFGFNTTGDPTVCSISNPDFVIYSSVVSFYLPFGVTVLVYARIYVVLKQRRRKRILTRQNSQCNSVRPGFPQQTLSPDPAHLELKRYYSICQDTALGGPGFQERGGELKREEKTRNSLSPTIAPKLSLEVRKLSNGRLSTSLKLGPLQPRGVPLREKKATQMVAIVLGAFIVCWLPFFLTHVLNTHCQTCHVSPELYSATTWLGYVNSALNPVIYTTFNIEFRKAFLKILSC
T2 sequence (P14416 whole entry, canonical isoform): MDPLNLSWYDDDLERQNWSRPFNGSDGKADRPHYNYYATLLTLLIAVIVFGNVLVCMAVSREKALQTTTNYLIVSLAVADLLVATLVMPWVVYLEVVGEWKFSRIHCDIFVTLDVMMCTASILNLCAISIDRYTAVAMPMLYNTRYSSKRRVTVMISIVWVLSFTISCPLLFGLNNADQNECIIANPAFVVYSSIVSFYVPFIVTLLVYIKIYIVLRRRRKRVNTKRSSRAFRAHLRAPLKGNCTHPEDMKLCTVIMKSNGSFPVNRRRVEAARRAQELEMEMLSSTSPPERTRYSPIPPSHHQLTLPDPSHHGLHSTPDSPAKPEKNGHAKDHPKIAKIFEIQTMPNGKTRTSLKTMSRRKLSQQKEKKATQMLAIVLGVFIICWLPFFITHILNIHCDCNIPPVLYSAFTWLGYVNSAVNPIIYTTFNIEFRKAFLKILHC

Compound	Ki [1] [nM]	Selectivity vs. D2L [2]
CCCN1CCN(c2ccc(NS(=O)(=O)c3ccc(C(C)C)cc3)cn2)C[C@@H]1CC.Cl [Example 51, N-[6-((S)-3-Ethyl-4-propyl-piperazin-1-yl)-pyridin-3-yl]-4-isopropylbenzenesulfonamide, hydrochloride]	3.1	101
C=CCN1CCN(c2ccc(NS(=O)(=O)c3ccc(C(C)C)cc3)cn2)CC1 [Example 1, N-[6-(4-Allylpiperazin-1-yl)pyridin-3-yl]-4-isopropylbenzenesulfonamide]	3	232
C=CCN1CCN(c2ccc(OS(=O)(=O)c3ccc(C(C)C)cc3)cn2)CC1 [Example 59, 4-Isopropyl-benzenesulfonic acid 6-(4-allyl-piperazin-1-yl)-pyridin-3-yl ester]	16.2	75
Cc1cc(N2CCNCC2)ncc1NS(=O)(=O)c1ccc(C(C)C)cc1.Cl [Example 36, 4-Isopropyl-N-(4-methyl-6-piperazin-1-ylpyridin-3-yl)-benzenesulfonamide hydrochloride]	5.4	50
CCCN1CCN(c2cc(C)c(NS(=O)(=O)c3ccc(C(C)C)cc3)cn2)CC1.Cl [Example 38, 4-Isopropyl-N-[4-methyl-6-(4-propylpiperazin-1-yl)pyridin-3-yl]-benzenesulfonamide hydrochloride]	17.2	22
C=CCN1C(C)CN(c2ccc(NS(=O)(=O)c3ccc(C(C)C)cc3)cn2)CC1C.Cl (stereo not shown) [Example 24, N-[6-(4-Allyl-3,5-dimethylpiperazin-1-yl)pyridin-3-yl]-4-isopropylbenzenesulfonamide hydrochloride]	25	47
C=CCN1CCN(c2ccc(NS(=O)(=O)c3ccc(C(C)(C)CC)cc3)c(C)n2)CC1 [Example 45, 4-tert-pentyl-[N-[2-(4-Allylpiperazin-1-yl)-6-methylpyridin-5-yl]-benzenesulfonamide, Fumarate]	1.4	24
C=CCN1CCN(c2ncc(NS(=O)(=O)c3ccc(C(C)C)cc3)cn2)C[C@@H]1C.Cl [Example 55, N-[2-((S)-4-Allyl-3-methyl-piperazin-1-yl)-pyrimidin-5-yl]-4-isopropyl-benzenesulfonamide, hydrochloride]	2.9	159
C=CCN1CCN(c2ccc(NS(=O)(=O)c3ccc(CC)cc3)cn2)CC1.Cl [Example 5, N-[6-(4-Allylpiperazin-1-yl)pyridin-3-yl]-4-ethylbenzenesulfonamide hydrochloride]	11.4	108
C=CCN1CCN(c2ccc(NS(=O)(=O)c3ccc(C(C)C)cc3)cn2)C[C@@H]1C [Example 13a, N-{6-[4-Allyl-(3S)-methylpiperazin-1-yl]pyridin-3-yl}-4-isopropylbenzenesulfonamide]	2.7	96
CCCN1CCN(c2ccc(NS(=O)(=O)c3ccc(Br)cc3)cn2)CC1 [Example 27, 4-Bromo-N-[6-(4-propylpiperazin-1-yl)pyridin-3-yl]-benzenesulfonamide]	21.4	55
C=CCN1CCN(c2ccc(NS(=O)(=O)c3ccc(C(C)(C)C)cc3)c(C)n2)CC1 [Example 44, 4-tert-Butyl-[N-[2-(4-allylpiperazin-1-yl)-6-methylpyridin-5-yl]-benzenesulfonamide, fumarate]	1.4	41
CCCN1CCN(c2ccc(NS(=O)(=O)c3ccc(CC)cc3)cn2)C[C@@H]1C.Cl [Example 46, 4-Ethyl-N-[6-((S)-3-methyl-4-propyl-piperazin-1-yl)-pyridin-3-yl]-benzenesulfonamide, hydrochloride]	7.1	50
C=CCN1CCN(c2ccc(NS(=O)(=O)c3ccc(CCC)cc3)cn2)CC1 [Example 2, N-[6-(4-Allylpiperazin-1-yl)pyridin-3-yl]-4-propylbenzenesulfonamide]	5.5	25
